Values after ≈ are worked out from the molar mass of the structure shown. Values joined by “and” are separate entries in the source; they are usually repeats but may differ in a detail not shown here. Equal values may be shown once. Where a name gives a salt, the structure may show the parent alone. Read-outs that look alike come from different tables or passages of the source.
What was measured:
[1] = tested on: Mycobacterium tuberculosis standard strain H37Rv; assay: Microplate Alamar Blue Assay (MABA), minimum inhibitory concentration; assay type: cell-based; conditions: for MIC: Mycobacterium tuberculosis; for in vitro anti-tuberculosis activity (in words): experimental data in Table 1
[2] = H37Rv, 7H9 liquid medium, MABA, lowest drug concentration that prevented the color change (blue to pink), read-out: MIC

Structure (SMILES) | melting point | MIC [1, 2] | MIC ([1]; H37RV) | in vitro anti-tuberculosis activity (in words) [1]
CCCCCCCCNCCNC1C2CC3CC(C2)CC1C3 (stereo not drawn) (as salt: hydrochloride) [XHJ-5-3, N-(adamantan-2-yl)-N′-octyl-ethane-1,2-diamine dihydrochloride] | 224 to 226 °C | – | – | –
CCCCCCNCCNC1C2CC3CC(C2)CC1C3 (stereo not drawn) (as salt: hydrochloride) [XHJ-5-5, N-(adamantan-2-yl)-N′-hexyl-ethane-1,2-diamine dihydrochloride] | 212 to 216 °C | – | – | –
NNC(=O)c1ccncc1 [INH, isoniazid, reference compound] | – | 0.05 µg/mL (≈ 0.365 µM) | – | –
CO[C@H]1/C=C/O[C@@]2(C)Oc3c(C)c(O)c4c(O)c(c(/C=N/N5CCN(C)CC5)c(O)c4c3C2=O)NC(=O)/C(C)=C\C=C\[C@H](C)[C@H](O)[C@@H](C)[C@@H](O)[C@@H](C)[C@H](OC(C)=O)[C@@H]1C [RFP, rifampin, reference compound] | – | 0.048 µg/mL (≈ 0.0583 µM) | – | –
CC(C)=CCC/C(C)=C/C(=O)NCCNC1C2CC3CC(C2)CC1C3.Cl (stereo not drawn) [XHJ-2-32, 3,7-dimethyl-oct-2,6-dienoic acid [2-(adamantan-2-yl-amino)ethyl]amide hydrochloride] | 150 to 164 °C | – | 7.75 µg/mL | good activity
CC(C)=CCC/C(C)=C/CNCC(=O)NC1C2CC3CC(C2)CC1C3.Cl (stereo not drawn) [XHJ-2-37, N-adamantan-2-yl-2-(3,7-dimethyl-oct-2,6-dienylamino)-acetamide hydrochloride] | 168 to 172 °C | – | < 0.5 µg/mL | good activity
CCS(=O)(=O)N(C/C=C(\C)CCC=C(C)C)CCN.Cl [XHJ-2-39, N-geranyl-N-(2-aminoethyl)ethylsulfonamide hydrochloride] | 103 to 106 °C | > 32 µg/mL | – | –
CC(C)=CCC/C(C)=C/CN(CCN)S(=O)(=O)c1ccc(C)cc1.Cl [XHJ-2-45, N-geranyl-N-(2-aminoethyl)-p-toluenesulfonamide hydrochloride] | 134 to 137 °C | 31.5 µg/mL | – | –
CCS(=O)(=O)N(C/C=C(\C)CCC=C(C)C)CCNC1C2CC3CC(C2)CC1C3.Cl (stereo not drawn) [XHJ-3-1, N-adamantan-2-yl-N′,N′-ethylsulfonyl-(3,7-dimethyl-oct-2,6-dienyl)-ethane-1,2-diamine hydrochloride] | 108 to 112 °C and 103 to 106 °C | – | 6.96 µg/mL | good activity
CC(C)=CCC/C(C)=C/CN(CCNC1C2CC3CC(C2)CC1C3)S(=O)(=O)c1ccc(C)cc1.Cl (stereo not drawn) [XHJ-3-3, N-adamantan-2-yl-N′,N′-p-toluenesulfonyl-(3,7-dimethyl-oct-2,6-dienyl)-ethane-1,2-diamine hydrochloride] | 179 to 182 °C | – | 3.76 µg/mL | good activity
CC(C)=CCC/C(C)=C/CN(CCNC1C2CC3CC(C2)CC1C3)C(=O)/C=C(\C)CCC=C(C)C (stereo not drawn) [XHJ-3-11, N-adamantan-2-yl-N′,N′-(3,7-dimethyl-oct-2,6-dienyl)-(3,7-dimethyl-oct-2,6-dienoyl)-ethane-1,2-diamine] | – | – | > 32 µg/mL | –
CC(C)=CCC/C(C)=C/CN(CCN(C(=O)c1c[nH]c2ccccc12)C1C2CC3CC(C2)CC1C3)C(=O)c1c[nH]c2ccccc12 (stereo not drawn) [XHJ-3-15, N,N-adamantan-2-yl-(3-indolylformyl)-N′,N′-(3,7-dimethyl-oct-2,6-dienyl)-(3-indolylformyl)-ethane-1,2-diamine] | 248 to 252 °C | – | > 32 µg/mL | –
CC(C)=CCC/C(C)=C/CN(CCNC1C2CC3CC(C2)CC1C3)C(=O)CCc1c[nH]c2ccccc12 (stereo not drawn) [XHJ-3-27, N-adamantan-2-yl-N′,N′-(3-indolylpropionyl)-(3,7-dimethyl-oct-2,6-dienyl)-ethane-1,2-diamine] | – | – | 1.96 µg/mL (≈ 3.91 µM) | good activity
COc1cc(C(=O)N(C/C=C(\C)CCC=C(C)C)CCNC2C3CC4CC(C3)CC2C4)cc(OC)c1OC (stereo not drawn) [XHJ-3-29, N-adamantan-2-yl-N′,N′-(3,4,5-trimethoxybenzoyl)-(3,7-dimethyl-oct-2,6-dienyl)-ethane-1,2-diamine] | – | – | 3.91 µg/mL (≈ 7.45 µM) | good activity
CCCCCCCCCCC(=O)N(C/C=C(\C)CCC=C(C)C)CCNC1C2CC3CC(C2)CC1C3 (stereo not drawn) [XHJ-3-31, N-adamantan-2-yl-N′,N′-undecanoyl-(3,7-dimethyl-oct-2,6-dienyl)-ethane-1,2-diamine] | – | – | 2.84 µg/mL (≈ 5.7 µM) | good activity
CC(C)=CCC/C(C)=C/CN(CCN)C1C2CC3CC(C2)CC1C3 (stereo not drawn) [XHJ-3-45, N,N-(adamantan-2-yl)-(3,7-dimethyl-oct-2,6-dienyl)-ethane-1,2-diamine] | 102 to 104 °C | – | < 0.5 µg/mL | better activity
CCS(=O)(=O)NCCNC1C2CC3CC(C2)CC1C3 (stereo not drawn) [XHJ-3-46, N-(adamantan-2-yl)-N′-ethylsulfonyl-ethane-1,2-diamine] | – | > 32 µg/mL | – | –
CC(C)=CCC/C(C)=C/CN(CCN(Cc1ccccc1)C1C2CC3CC(C2)CC1C3)Cc1ccccc1 (stereo not drawn) [XHJ-4-11, N,N-(adamantan-2-yl)-benzyl-N′,N′-(3,7-dimethyl-oct-2,6-dienyl)-benzyl-ethane-1,2-diamine] | – | – | 30.8 µg/mL (≈ 60.3 µM) | –
CCCCCCCCN(C/C=C(\C)CCC=C(C)C)CCN(CCCCCCCC)C1C2CC3CC(C2)CC1C3 (stereo not drawn) [XHJ-4-15, N,N-(adamantan-2-yl)-octyl-N′,N′-(3,7-dimethyl-oct-2,6-dienyl)-octyl-ethane-1,2-diamine] | – | – | > 32 µg/mL | –
CCCCCCCCNCCNC1C2CC3CC(C2)CC1C3 (stereo not drawn) [XHJ-5-3, N-(adamantan-2-yl)-N′-octyl-ethane-1,2-diamine dihydrochloride] | – | – | 0.986 µg/mL | better activity
CCCCCCNCCNC1C2CC3CC(C2)CC1C3 (stereo not drawn) [XHJ-5-5, N-(adamantan-2-yl)-N′-hexyl-ethane-1,2-diamine dihydrochloride] | – | – | 0.982 µg/mL | better activity
CC(C)=CCC/C(C)=C/CNCCNC(c1ccccc1)c1cccnc1 (stereo not drawn) [XHJ-5-8, N-(phenyl-pyridin-3-yl-methyl)-N′-(3,7-dimethyl-oct-2,6-dienyl)-ethane-1,2-diamine] | – | – | 16 µg/mL (≈ 44 µM) | better activity
CC(C)=CCC/C(C)=C/CNCCNC(c1ccccn1)c1ccccn1 [XHJ-5-14, N-(dipyridin-2-yl-methyl)-N′-(3,7-dimethyl-oct-2,6-dienyl)-ethane-1,2-diamine] | – | – | 4 µg/mL (≈ 11 µM) | better activity
C(CNC1C2CC3CC(C2)CC1C3)NC1CC1 (stereo not drawn) [XHJ-5-18, N-(adamantan-2-yl)-N′-cyclopropyl-ethane-1,2-diamine] | 197 to 200 °C | > 32 µg/mL | – | –
